Data reported in ChEMBL document CHEMBL1201862, “PubChem BioAssay data set” (2004).
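These data come from cells grown in 96-well plates and exposed to compound for 48 hours at five concentrations. Here, GI50 denotes the concentration required for 50% inhibition of growth.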 Calls of active or inactive are those of the source. Cut-off read from the data, not from the text of the source: active = GI50 up to about 1.1 µM and inactive = higher.

How the values were obtained:
Test in all cases: DTP human tumour cell line panel, 48 h
786-0 = test system: 786-0
A498 = test system: A498
A549 = test system: A549
ACHN = test system: ACHN
CAKI-1 = test system: CAKI-1
CCRF-CEM = test system: CCRF-CEM
COLO 205 = test system: COLO 205
DU-145 = test system: DU-145
EKVX = test system: EKVX
HCC 2998 = test system: HCC 2998
HCT-116 = test system: HCT-116
HCT-15 = test system: HCT-15
HL-60 = test system: HL-60
HOP-62 = test system: HOP-62
HOP-92 = test system: HOP-92
HT-29 = test system: HT-29
Hs-578T = test system: Hs-578T
IGROV-1 = test system: IGROV-1
K562 = test system: K562
KM12 = test system: KM12
LOX IMVI = test system: LOX IMVI
M14 = test system: M14
MCF7 = test system: MCF7
MDA-MB-231 = test system: MDA-MB-231
MDA-N = test system: MDA-N
MOLT-4 = test system: MOLT-4
Malme-3M = test system: Malme-3M
NCI-H226 = test system: NCI-H226
NCI-H23 = test system: NCI-H23
NCI-H460 = test system: NCI-H460
NCI-H522 = test system: NCI-H522
NCI/ADR-RES = test system: NCI/ADR-RES
OVCAR-3 = test system: OVCAR-3
OVCAR-4 = test system: OVCAR-4
OVCAR-8 = test system: OVCAR-8
PC-3 = test system: PC-3
RPMI-8226 = test system: RPMI-8226
RXF 393 = test system: RXF 393
SF-268 = test system: SF-268
SF-295 = test system: SF-295
SF-539 = test system: SF-539
SK-MEL-28 = test system: SK-MEL-28
SK-MEL-2 = test system: SK-MEL-2
SK-MEL-5 = test system: SK-MEL-5
SK-OV-3 = test system: SK-OV-3
SN12C = test system: SN12C
SNB-19 = test system: SNB-19
SNB-75 = test system: SNB-75
SR = test system: SR
SW-620 = test system: SW-620
T47D = test system: T47D
TK-10 = test system: TK-10
U-251 = test system: U-251
UACC-257 = test system: UACC-257
UACC-62 = test system: UACC-62
UO-31 = test system: UO-31
MDA-MB-435 = test system: MDA-MB-435
OVCAR-5 = test system: OVCAR-5

Measured: GI50

c1ccc(CSC2(SCc3ccccc3)CCCCC2)cc1
> 10 µM: HCT-15
inactive: 786-0 > 10 µM | A498 > 10 µM | A549 > 10 µM | ACHN > 10 µM | CAKI-1 > 10 µM | CCRF-CEM > 10 µM | COLO 205 > 10 µM | DU-145 > 10 µM | EKVX > 10 µM | HCC 2998 > 10 µM | HCT-116 > 10 µM | HL-60 > 10 µM | HOP-62 > 10 µM | HOP-92 > 10 µM | HT-29 > 10 µM | Hs-578T > 10 µM | IGROV-1 > 10 µM | K562 > 10 µM | KM12 > 10 µM | LOX IMVI > 10 µM | M14 > 10 µM | MCF7 > 10 µM | MDA-MB-231 > 10 µM | MDA-N > 10 µM | MOLT-4 > 10 µM | Malme-3M > 10 µM | NCI-H226 > 10 µM | NCI-H23 > 10 µM | NCI-H460 > 10 µM | NCI-H522 > 10 µM | NCI/ADR-RES > 10 µM | OVCAR-3 > 10 µM | OVCAR-4 > 10 µM | OVCAR-8 > 10 µM | PC-3 > 10 µM | RPMI-8226 > 10 µM | RXF 393 > 10 µM | SF-268 > 10 µM | SF-295 > 10 µM | SF-539 > 10 µM | SK-MEL-28 > 10 µM | SK-MEL-2 > 10 µM | SK-MEL-5 > 10 µM | SK-OV-3 > 10 µM | SN12C > 10 µM | SNB-19 > 10 µM | SNB-75 > 10 µM | SR > 10 µM | SW-620 > 10 µM | T47D > 10 µM | TK-10 > 10 µM | U-251 > 10 µM | UACC-257 > 10 µM | UACC-62 > 10 µM | UO-31 > 10 µM

COc1cc(CNC(=S)CCCCCCCCCCC(C)C)ccc1O
63 µM: HCT-15
inactive: 786-0 63.5 µM | A498 31.6 µM | A549 53 µM | ACHN 58.7 µM | CCRF-CEM 1.19 µM | COLO 205 70.6 µM | DU-145 > 100 µM | EKVX 62.8 µM | HCC 2998 63.1 µM | HCT-116 31.6 µM | HL-60 13.3 µM | HOP-62 58.6 µM | HOP-92 24.2 µM | HT-29 36.7 µM | Hs-578T 22.2 µM | IGROV-1 44.2 µM | K562 35.2 µM | KM12 28.4 µM | LOX IMVI 41.9 µM | M14 48.4 µM | MCF7 41.5 µM | MDA-MB-231 > 100 µM | MDA-MB-435 41.9 µM | MOLT-4 5.92 µM | Malme-3M > 100 µM | NCI-H226 18.4 µM | NCI-H23 28.7 µM | NCI-H460 42.9 µM | NCI/ADR-RES 46.3 µM | OVCAR-4 53.6 µM | OVCAR-5 > 100 µM | OVCAR-8 49 µM | RPMI-8226 37.2 µM | RXF 393 > 100 µM | SF-268 > 100 µM | SF-295 43.7 µM | SF-539 > 100 µM | SK-MEL-28 > 100 µM | SK-MEL-5 36.2 µM | SK-OV-3 > 100 µM | SN12C 92.3 µM | SNB-19 72.6 µM | SNB-75 > 100 µM | SR 3.01 µM | SW-620 > 100 µM | T47D 27 µM | TK-10 > 100 µM | U-251 72.1 µM | UACC-257 38.5 µM | UACC-62 34.4 µM | UO-31 11.9 µM

CCCCC1c2c([nH]c3ccccc23)C2C(=O)N(c3ccc(OC)cc3)C(=O)C2C1CCC (stereo not given)
inactive: 786-0 4.39 µM | A498 3.4 µM | A549 5.13 µM | ACHN 5.7 µM | CAKI-1 1.23 µM | CCRF-CEM 3.66 µM | COLO 205 2.59 µM | DU-145 5.12 µM | EKVX 3.56 µM | HCC 2998 3.47 µM | HCT-116 3.01 µM | HL-60 2.96 µM | HOP-62 3.69 µM | HOP-92 3.03 µM | HT-29 3.13 µM | Hs-578T 1.87 µM | IGROV-1 4.56 µM | K562 3.29 µM | KM12 2.1 µM | LOX IMVI > 10 µM | M14 3.06 µM | MDA-MB-231 2.58 µM | MDA-MB-435 2.24 µM | MDA-N 3.02 µM | MOLT-4 2.74 µM | Malme-3M 4.44 µM | NCI-H226 5.02 µM | NCI-H23 3.89 µM | NCI-H460 4.19 µM | NCI-H522 6.28 µM | NCI/ADR-RES 2.96 µM | OVCAR-3 3.36 µM | OVCAR-4 4.82 µM | OVCAR-5 > 10 µM | OVCAR-8 2.65 µM | PC-3 2.6 µM | RPMI-8226 4.61 µM | RXF 393 3.39 µM | SF-268 4.35 µM | SF-295 > 10 µM | SF-539 2.24 µM | SK-MEL-28 5.4 µM | SK-MEL-2 2.39 µM | SK-MEL-5 5.38 µM | SK-OV-3 > 10 µM | SN12C 2.18 µM | SNB-19 8.59 µM | SNB-75 2.55 µM | SR 4.75 µM | SW-620 3.95 µM | T47D > 10 µM | TK-10 4.37 µM | U-251 8.71 µM | UACC-257 3.61 µM | UACC-62 2.29 µM | UO-31 4.45 µM
3.6 µM: HCT-15
